Source: US12146004B2, “Polymyxin compounds and uses thereof” (priority 2014, dated 2024)
≈ marks a conversion by molar mass, not a printed value. Like-named read-outs stand apart in the source and are kept apart here.

How the values were obtained:
Format in all cases: cell-based
Acinetobacter baumannii = tested on: Acinetobacter baumannii
In short: (§1)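 MIC (μg/mL) from susceptibility testing; up to nine strains per species, incl. resistant and Polymyxin-elevated-MIC strains.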

Escherichia coli = tested on: Escherichia coli
In short: as §1

Klebsiella pneumoniae = tested on: Klebsiella pneumoniae
In short: as §1

Pseudomonas aeruginosa = tested on: Pseudomonas aeruginosa
In short: as §1

SMILES | MIC A. baumanii 053 (Acinetobacter baumannii) [µg/mL] | MIC A. baumanii 056 (Acinetobacter baumannii) [µg/mL] | MIC A. baumanii ATCC BAA-747 (Acinetobacter baumannii) [µg/mL] | MIC A. baumanii NCTC 13424 (Acinetobacter baumannii) [µg/mL] | MIC E. coli 058 (Escherichia coli) [µg/mL] | MIC E. coli 061 (Escherichia coli) [µg/mL] | MIC E. coli ATCC 25922 (Escherichia coli) [µg/mL] | MIC E. coli NCTC 9001 (Escherichia coli) [µg/mL] | MIC K. pneumoniae 063 (Klebsiella pneumoniae) [µg/mL] | MIC K. pneumoniae 065 (Klebsiella pneumoniae) [µg/mL] | MIC K. pneumoniae ATCC 13882 (Klebsiella pneumoniae) [µg/mL] | MIC P. aeruginosa 068 (Pseudomonas aeruginosa) [µg/mL] | MIC P. aeruginosa 070 (Pseudomonas aeruginosa) [µg/mL] | MIC P. aeruginosa ATCC 27853 (Pseudomonas aeruginosa) [µg/mL] | MIC P. aeruginosa CCUG 59347 (Pseudomonas aeruginosa) [µg/mL] | further results
CC(C)C[C@@H]1NC(=O)[C@@H](CC2CCCCC2)NC(=O)[C@H](CCN)NC(=O)[C@@H](NC(=O)[C@H](CCN)NC(=O)[C@@H](NC(=O)C(CCN)c2cccc(Cl)c2)[C@@H](C)O)CCNC(=O)[C@H]([C@@H](C)O)NC(=O)[C@H](CCN)NC(=O)[C@H](CCN)NC1=O (single isomer, unassigned; isomer 2) [Example 55, 4-amino-2-(3-chlorophenyl) butanoyl polymyxin [D-cyclohexylalanine]-6 nonapeptide. isomer 2] | 8 (≈ 6.87 µM) | 4 (≈ 3.43 µM) | 0.125 (≈ 0.107 µM) | 0.25 (≈ 0.215 µM) | 2 (≈ 1.72 µM) | 16 (≈ 13.7 µM) | 0.25 (≈ 0.215 µM) | 0.06 (≈ 0.0515 µM) | 16 (≈ 13.7 µM) | 1 (≈ 0.858 µM) | 0.25 (≈ 0.215 µM) | 4 (≈ 3.43 µM) | 4 (≈ 3.43 µM) | 0.125 (≈ 0.107 µM) | 0.5 (≈ 0.429 µM) | 
CC(C)C[C@@H]1NC(=O)[C@@H](CC2CCCCC2)NC(=O)[C@H](CCN)NC(=O)[C@@H](NC(=O)[C@H](CCN)NC(=O)[C@@H](NC(=O)CC(CN)c2ccccc2)[C@@H](C)O)CCNC(=O)[C@H]([C@@H](C)O)NC(=O)[C@H](CCN)NC(=O)[C@H](CCN)NC1=O (single isomer, unassigned; isomer 2) [Example 57, 4-amino-3-phenylbutanoyl polymyxin [D-cyclohexylalanine]-6 nonapeptide isomer 2] |  |  |  |  |  |  |  |  |  |  |  |  |  |  |  | MIC A. baumanii ATCC BAA-747 (Acinetobacter baumannii; strain ATCC BAA-747): 1 µg/mL (≈ 0.885 µM); MIC A. baumanii NCTC 13424 (Acinetobacter baumannii; strain NCTC 13424): 1 µg/mL (≈ 0.885 µM); MIC E. coli 058 (Escherichia coli; strain 058): 16 µg/mL (≈ 14.2 µM); MIC E. coli ATCC 25922 (Escherichia coli; strain ATCC 25922): 0.25 µg/mL (≈ 0.221 µM); MIC K. pneumoniae 065 (Klebsiella pneumoniae; strain 065): 8 µg/mL (≈ 7.08 µM); MIC K. pneumoniae ATCC 13882 (Klebsiella pneumoniae; strain ATCC 13882): 0.25 µg/mL (≈ 0.221 µM); MIC P. aeruginosa ATCC 27853 (Pseudomonas aeruginosa; strain ATCC 27853): 0.25 µg/mL (≈ 0.221 µM); MIC P. aeruginosa CCUG 59347 (Pseudomonas aeruginosa; strain CCUG 59347): 0.5 µg/mL (≈ 0.442 µM)
CC(C)C[C@@H]1NC(=O)[C@@H](CC2CCCCC2)NC(=O)[C@H](CCN)NC(=O)[C@@H](NC(=O)[C@H](CN)NC(=O)[C@@H](NC(=O)CC(CN)Cc2ccccc2)[C@@H](C)O)CCNC(=O)[C@H]([C@@H](C)O)NC(=O)[C@H](CCN)NC(=O)[C@H](CCN)NC1=O (single isomer, unassigned; isomer 2) [Example 59, 4-amino-3-benzylbutanoyl L-Thr-L-Dap-polymyxin [D-cyclohexylalanine]-6 heptapeptide. Isomer 2] |  |  |  |  |  |  |  |  |  |  |  |  |  |  |  | MIC A. baumanii 053 (Acinetobacter baumannii; strain 053): 32 µg/mL (≈ 28.3 µM); MIC A. baumanii 056 (Acinetobacter baumannii; strain 056): 16 µg/mL (≈ 14.2 µM); MIC A. baumanii ATCC BAA-747 (Acinetobacter baumannii; strain ATCC BAA-747): 0.03 µg/mL (≈ 0.0265 µM); MIC A. baumanii NCTC 13424 (Acinetobacter baumannii; strain NCTC 13424): 0.06 µg/mL (≈ 0.0531 µM); MIC E. coli 058 (Escherichia coli; strain 058): 2 µg/mL (≈ 1.77 µM); MIC E. coli ATCC 25922 (Escherichia coli; strain ATCC 25922): 0.125 µg/mL (≈ 0.111 µM); MIC E. coli NCTC 9001 (Escherichia coli; strain NCTC 9001): 0.06 µg/mL (≈ 0.0531 µM); MIC K. pneumoniae 063 (Klebsiella pneumoniae; strain 063): 32 µg/mL (≈ 28.3 µM); MIC K. pneumoniae 065 (Klebsiella pneumoniae; strain 065): 2 µg/mL (≈ 1.77 µM); MIC K. pneumoniae ATCC 4352 (Klebsiella pneumoniae; strain ATCC 4352): 0.125 µg/mL (≈ 0.111 µM); MIC K. pneumoniae ATCC 13882 (Klebsiella pneumoniae; strain ATCC 13882): 0.25 µg/mL (≈ 0.221 µM); MIC P. aeruginosa 068 (Pseudomonas aeruginosa; strain 068): 4 µg/mL (≈ 3.54 µM); MIC P. aeruginosa 070 (Pseudomonas aeruginosa; strain 070): 8 µg/mL (≈ 7.08 µM); MIC P. aeruginosa ATCC 27853 (Pseudomonas aeruginosa; strain ATCC 27853): 0.25 µg/mL (≈ 0.221 µM); MIC P. aeruginosa CCUG 59347 (Pseudomonas aeruginosa; strain CCUG 59347): 0.25 µg/mL (≈ 0.221 µM)
CC(C)C[C@@H]1NC(=O)[C@@H](CC2CCCCC2)NC(=O)[C@H](CCN)NC(=O)[C@@H](NC(=O)[C@H](CN)NC(=O)[C@@H](NC(=O)CCC(N)c2ccccc2)[C@@H](C)O)CCNC(=O)[C@H]([C@@H](C)O)NC(=O)[C@H](CCN)NC(=O)[C@H](CCN)NC1=O (single isomer, unassigned; isomer 2) [Example 61, 4-amino-4-phenylbutanoyl L-Thr-L-Dap-polymyxin [D-cyclohexylalanine]-6 heptapeptide. Isomer 2] |  |  | 0.25 (≈ 0.224 µM) | 0.25 (≈ 0.224 µM) | 8 (≈ 7.17 µM) |  | 0.25 (≈ 0.224 µM) |  |  | 32 (≈ 28.7 µM) | 0.25 (≈ 0.224 µM) |  |  | 0.25 (≈ 0.224 µM) | 0.5 (≈ 0.448 µM) | 
CC(C)C[C@@H]1NC(=O)[C@@H](CC2CCCCC2)NC(=O)[C@H](CCN)NC(=O)[C@@H](NC(=O)[C@H](CCN)NC(=O)[C@@H](NC(=O)C(CCN)c2ccccc2)[C@@H](C)O)CCNC(=O)[C@H]([C@@H](C)O)NC(=O)[C@H](CCN)NC(=O)[C@H](CCN)NC1=O (single isomer, unassigned; isomer 2) [Example 64, 4-amino-2-phenylbutanoyl polymyxin [D-cyclohexylalanine]-6 nonapeptide isomer 2] | 32 (≈ 28.3 µM) | 32 (≈ 28.3 µM) | 0.125 (≈ 0.111 µM) | 0.25 (≈ 0.221 µM) | 8 (≈ 7.08 µM) | 32 (≈ 28.3 µM) | 0.125 (≈ 0.111 µM) |  | 64 (≈ 56.6 µM) | 4 (≈ 3.54 µM) | 0.25 (≈ 0.221 µM) | 8 (≈ 7.08 µM) | 16 (≈ 14.2 µM) | 0.25 (≈ 0.221 µM) | 0.25 (≈ 0.221 µM) | 
CC(C)C[C@@H]1NC(=O)[C@@H](CC2CCCCC2)NC(=O)[C@H](CCN)NC(=O)[C@@H](NC(=O)[C@H](CN)NC(=O)[C@@H](NC(=O)C(CCN)Cc2ccccc2F)[C@@H](C)O)CCNC(=O)[C@H]([C@@H](C)O)NC(=O)[C@H](CCN)NC(=O)[C@H](CCN)NC1=O (single isomer, unassigned; isomer 2) [Example 65, 4-amino-2-(2-fluorobenzyl) butanoyl L-Thr-L-Dap-polymyxin [D-cyclohexylalanine]-6 heptapeptide. Isomer 2] | >64 | >64 | 0.25 (≈ 0.218 µM) | 1 (≈ 0.871 µM) | 4 (≈ 3.48 µM) | 16 (≈ 13.9 µM) | 0.25 (≈ 0.218 µM) |  | 16 (≈ 13.9 µM) | 2 (≈ 1.74 µM) | 0.25 (≈ 0.218 µM) | 2 (≈ 1.74 µM) | 2 (≈ 1.74 µM) | 0.5 (≈ 0.435 µM) | 0.5 (≈ 0.435 µM) | 
CC(C)C[C@@H]1NC(=O)[C@@H](CC2CCCCC2)NC(=O)[C@H](CCN)NC(=O)[C@@H](NC(=O)[C@H](CCN)NC(=O)[C@@H](NC(=O)C(CCN)C2CCCCC2)[C@@H](C)O)CCNC(=O)[C@H]([C@@H](C)O)NC(=O)[C@H](CCN)NC(=O)[C@H](CCN)NC1=O (single isomer, unassigned; isomer 2) [Example 69, 4-amino-2-cyclohexylbutanoyl polymyxin [D-cyclohexylalanine]-6 nonapeptide isomer 2] | >64 | 64 (≈ 56.3 µM) | 0.25 (≈ 0.22 µM) | 0.06 (≈ 0.0528 µM) | 4 (≈ 3.52 µM) | 16 (≈ 14.1 µM) | 0.06 (≈ 0.0528 µM) | 0.03 (≈ 0.0264 µM) | 16 (≈ 14.1 µM) | 0.5 (≈ 0.44 µM) | 0.25 (≈ 0.22 µM) | 4 (≈ 3.52 µM) | 8 (≈ 7.04 µM) | 0.25 (≈ 0.22 µM) | 0.5 (≈ 0.44 µM) | MIC K. pneumoniae ATCC 4352 (Klebsiella pneumoniae): 0.25 µg/mL (≈ 0.22 µM)
CC(C)C[C@@H]1NC(=O)[C@@H](CC2CCCCC2)NC(=O)[C@H](CCN)NC(=O)[C@@H](NC(=O)[C@H](CCN)NC(=O)[C@@H](NC(=O)C(CCN)c2cccs2)[C@@H](C)O)CCNC(=O)[C@H]([C@@H](C)O)NC(=O)[C@H](CCN)NC(=O)[C@H](CCN)NC1=O (single isomer, unassigned; isomer 2) [Example 70, 4-amino-2-(thiophen-2-yl)butanoyl polymyxin [D-cyclohexylalanine]-6 nonapeptide isomer 2] | 32 (≈ 28.2 µM) | 16 (≈ 14.1 µM) | 0.25 (≈ 0.22 µM) | 0.25 (≈ 0.22 µM) | 8 (≈ 7.04 µM) | 32 (≈ 28.2 µM) | 0.125 (≈ 0.11 µM) |  | 64 (≈ 56.3 µM) | 8 (≈ 7.04 µM) | 0.125 (≈ 0.11 µM) | 8 (≈ 7.04 µM) | 32 (≈ 28.2 µM) | 0.25 (≈ 0.22 µM) | 0.5 (≈ 0.44 µM) | 
CC(C)CCC(CCN)C(=O)N[C@H](C(=O)N[C@@H](CN)C(=O)N[C@H]1CCNC(=O)[C@H]([C@@H](C)O)NC(=O)[C@H](CCN)NC(=O)[C@H](CCN)NC(=O)[C@H](CC(C)C)NC(=O)[C@@H](CC2CCCCC2)NC(=O)[C@H](CCN)NC1=O)[C@@H](C)O (single isomer, unassigned; isomer 2) [Example 80, 2-(2-aminoethyl)-5-methylhexanoyl L-Thr-L-Dap-polymyxin [D-cyclohexylalanine-6]heptapeptide. isomer 2] | 64 (≈ 57.6 µM) | 32 (≈ 28.8 µM) | 0.125 (≈ 0.113 µM) | 0.125 (≈ 0.113 µM) | 2 (≈ 1.8 µM) | 8 (≈ 7.2 µM) | 0.125 (≈ 0.113 µM) | 0.03 (≈ 0.027 µM) | 8 (≈ 7.2 µM) | 2 (≈ 1.8 µM) | 0.25 (≈ 0.225 µM) | 2 (≈ 1.8 µM) | 2 (≈ 1.8 µM) | 0.25 (≈ 0.225 µM) | 0.5 (≈ 0.45 µM) | MIC K. pneumoniae ATCC 4352 (Klebsiella pneumoniae): 0.06 µg/mL (≈ 0.054 µM)
